Measured values from patent publication US10112955B2, “Isoindoline, azaisoindoline, dihydroindenone and dihydroazaindenone inhibitors of Mnk1 and Mnk2” (eFFECTOR THERAPEUTICS, INC., priority 2015, dated 2018).
Where a name gives a salt, the structure may show the parent alone.

System: Phosphorylated eIF4E
Assay: peIF4E Signaling Cellular Assay (CisBio peIF4E HTRF)
Type: cell-based
Conditions: cells incubated with compound for 2 hrs at 37° C., 12-point curve
Protocol: Phosphorylated eIF4E is assayed using the CisBio peIF4E HTRF® assay kit (CisBio, catalogue No. 64EF4PEG). Cells are plated in 96-well tissue-culture treated plate in appropriate growth medium (90 μL). Compounds (10×) are diluted using 3-fold serial dilutions in cell culture medium and added to cells. Plates are incubated for 2 hrs at 37° C. The cell supernatant is carefully removed either by aspirating supernatant or by flicking the plate. Immediately 50 μL of supplemented lysis buffer (1×) is added and incubated for at least 30 minutes at room temperature under shaking. After homogenization by pipeting up and down, 16 μL of cell lysate is transferred from the 96-well cell-culture plate to a 384-well small volume white plate. 4 μL of premixed antibody solutions (vol/vol) is prepared in the detection buffer and added. The plate is covered with a plate sealer and incubated overnight at room temperature. The fluorescence emissions at two different wavelengths are read (665 nm and 620 nm) on a Wallac Victor2. Emission ratios are converted into percent inhibitions and imported into GraphPad Prism software. […] IC50 values are determined using a nonlinear regression model available in GraphPad Prism 5.

IC50	Compound
50 to 1000 nM	Cc1cc(Nc2ncnc(N)c2C)cc2c1C(=O)CC21CCCCC1 [Cpd. No. 110, 6′-((6-amino-5-methylpyrimidin-4-yl)amino)-4′-methylspiro[cyclohexane-1,1′-inden]-3′(2′H)-one]
< 50 nM	Cc1cc(Nc2ncnc(N)c2Cl)nc2c1C(=O)NC21CCCCC1 [Cpd. No. 73, 2′-((6-amino-5-chloropyrimidin-4-yl)amino)-4′-methylspiro[cyclohexane-1,7′-pyrrolo[3,4-b]pyridin]-5′(6′H)-one]
50 to 1000 nM	Cc1c(N)ncnc1Nc1cc(F)c2c(c1)C1(CCCCC1)NC2=O [Cpd. No. 89, 6′-((6-amino-5-methylpyrimidin-4-yl)amino)-4′-fluorospiro[cyclohexane-1,1′-isoindolin]-3′-one]
50 to 1000 nM	Cc1c(N)ncnc1Nc1cc(C(F)(F)F)c2c(c1)C1(CCCCC1)NC2=O [Cpd. No. 79, 6′-((6-amino-5-methylpyrimidin-4-yl)amino)-4′-(trifluoromethyl)spiro[cyclohexane-1,1′-isoindolin]-3′-one]
1000 to 100000 nM	Cc1cc(Nc2ncnc(N)c2C)c(Cl)c2c1C(=O)NC21CCCCC1 [Cpd. No. 96, 6′-((6-amino-5-methylpyrimidin-4-yl)amino)-7′-chloro-4′-methylspiro[cyclohexane-1,1′-isoindolin]-3′-one]
50 to 1000 nM	Cc1cc(Nc2ncnc(N)c2C)cc2c1C(=O)NC21CCOCC1 [Cpd. No. 74, 6-((6-amino-5-methylpyrimidin-4-yl)amino)-4-methyl-2′,3′,5′,6′-tetrahydrospiro[isoindoline-1,4′-pyran]-3-one]
< 50 nM	Cc1cc(Nc2ncnc3[nH]ccc23)cc2c1C(=O)NC21CCCCC1 [Cpd. No. 75, 6′-((7H-pyrrolo[2,3-d]pyrimidin-4-yl)amino)-4′-methylspiro[cyclohexane-1,1′-isoindolin]-3′-one]
1000 to 100000 nM	Cc1cc(Nc2ncnc(N)c2C)cc2c1C(=O)NC21CCN(C)CC1 [Cpd. No. 62, 6-((6-amino-5-methylpyrimidin-4-yl)amino)-1′,4-dimethylspiro[isoindoline-1,4′-piperidin]-3-one]
50 to 1000 nM	CCc1cc(Nc2ncnc(N)c2C)cc2c1C(=O)NC21CCCCC1 [Cpd. No. 90, 6′-((6-amino-5-methylpyrimidin-4-yl)amino)-4′-ethylspiro [cyclohexane-1,1′-isoindolin]-3′-one]
50 to 1000 nM	COc1cncnc1Nc1cc(C)c2c(c1)C1(CCN(CC(F)F)CC1)NC2=O [Cpd. No. 65, 1′-(2,2-difluoroethyl)-6-((5-methoxypyrimidin-4-yl)amino)-4-methylspiro[isoindoline-1,4′-piperidin]-3-one]
50 to 1000 nM	Cc1cc(Nc2ncncc2C(N)=O)cc2c1C(=O)NC21CCCCC1 [Cpd. No. 64, 4-((4′-methyl-3′-oxospiro[cyclohexane-1,1′-isoindolin]-6′-yl)amino)pyrimidine-5-carboxamide]
1000 to 100000 nM	Cc1c(N)ncnc1Nc1cc(C#N)c2c(c1)C1(CCCCC1)NC2=O [Cpd. No. 91, 6′-((6-amino-5-methylpyrimidin-4-yl)amino)-3′-oxospiro[cyclohexane-1,1′-isoindoline]-4′-carbonitrile]
1000 to 100000 nM	COc1cc(Nc2ncnc(N)c2C)cc2c1C(=O)NC21CCCCC1 [Cpd. No. 78, 6′-((6-amino-5-methylpyrimidin-4-yl)amino)-4′-methoxyspiro[cyclohexane-1,1′-isoindolin]-3′-one]
50 to 1000 nM	Cc1cc(Nc2ncnc(N)c2S(C)(=O)=O)cc2c1C(=O)NC21CCCCC1 [Cpd. No. 86, 6′-((6-amino-5-(methylsulfonyl)pyrimidin-4-yl)amino)-4′-methylspiro[cyclohexane-1,1′-isoindolin]-3′-one]
50 to 1000 nM	COc1c(N)ncnc1Nc1cc(C)c2c(c1)C1(CCN(C)CC1)NC2=O [Cpd. No. 68, 6-((6-amino-5-methoxypyrimidin-4-yl)amino)-1′,4-dimethylspiro[isoindoline-1,4′-piperidin]-3-one]
< 50 nM	Cc1cc(Nc2ncnc(N)c2OC(F)(F)F)cc2c1C(=O)NC21CCCCC1 [Cpd. No. 83, 6′-((6-amino-5-(trifluoromethoxy)pyrimidin-4-yl)amino)-4′-methylspiro[cyclohexane-1,1′-isoindolin]-3′-one]

IC50	Compound
50 to 1000 nM	Cc1cc(Nc2ncnc(N)c2C)cc2c1C(=O)NC21CCN(CC(F)F)CC1 [Cpd. No. 66, 6-((6-amino-5-methylpyrimidin-4-yl)amino)-1′-(2,2-difluoroethyl)-4-methylspiro[isoindoline-1,4′-piperidin]-3-one]
1000 to 100000 nM	Cc1cc(Nc2ncncc2C#N)cc2c1C(=O)NC21CCN(C)CC1 [Cpd. No. 61, 4-((1′,4-dimethyl-3-oxospiro[isoindoline-1,4′-piperidin]-6-yl)amino)pyrimidine-5-carbonitrile trifluoroacetic acid salt]
50 to 1000 nM	Cc1cc(Nc2ncnc(N)c2C)c(O)c2c1C(=O)NC21CCCCC1 [Cpd. No. 93, 6′-((6-amino-5-methylpyrimidin-4-yl)amino)-7′-hydroxy-4′-methylspiro[cyclohexane-1,1′-isoindolin]-3′-one]
1000 to 100000 nM	Cc1c(N)ncnc1Nc1cc(O)c2c(c1)C1(CCCCC1)NC2=O [Cpd. No. 92, 6′-((6-amino-5-methylpyrimidin-4-yl)amino)-4′-hydroxyspiro[cyclohexane-1,1′-isoindolin]-3′-one]
50 to 1000 nM	Cc1cc(Nc2ncnc(N)c2C(F)(F)F)cc2c1C(=O)NC21CCCCC1 [Cpd. No. 80, 6′-((6-amino-5-(trifluoromethyl)pyrimidin-4-yl)amino)-4′-methylspiro[cyclohexane-1,1′-isoindolin]-3′-one]
50 to 1000 nM	Cc1cc(Nc2ncnc(N)c2OC(F)F)cc2c1C(=O)NC21CCCCC1 [Cpd. No. 84, 6′-((6-amino-5-(difluoromethoxy)pyrimidin-4-yl)amino)-4′-methylspiro[cyclohexane-1,1′-isoindolin]-3′-one]
< 50 nM	Cc1cc(Nc2cc(N)ncn2)nc2c1C(=O)NC21CCCCC1 [Cpd. No. 70, 2′-((6-aminopyrimidin-4-yl)amino)-4′-methylspiro[cyclohexane-1,7′-pyrrolo[3,4-b]pyridin]-5′(6′H)-one]
1000 to 100000 nM	Cc1cc(Nc2ncnc(N)c2C)cc2c1C(=O)NC2 [Cpd. No. 106, 5-((6-amino-5-methylpyrimidin-4-yl)amino)-7-methylisoindolin-1-one]
50 to 1000 nM	CCOc1c(N)ncnc1Nc1cc(C)c2c(c1)C1(CCCCC1)NC2=O [Cpd. No. 76, 6′-((6-amino-5-ethoxypyrimidin-4-yl)amino)-4′-methylspiro[cyclohexane-1,1′-isoindolin]-3′-one]
50 to 1000 nM	COc1c(N)ncnc1Nc1cc(C)c2c(c1)C1(CCN(CC(F)F)CC1)NC2=O [Cpd. No. 69, 6-((6-amino-5-methoxypyrimidin-4-yl)amino)-1′-(2,2-difluoroethyl)-4-methylspiro[isoindoline-1,4′-piperidin]-3-one]
50 to 1000 nM	COc1c(Nc2ncnc(N)c2C)cc(C)c2c1C1(CCCCC1)NC2=O [Cpd. No. 94, 6′-((6-amino-5-methylpyrimidin-4-yl)amino)-7′-methoxy-4′-methylspiro[cyclohexane-1,1′-isoindolin]-3′-one]
< 50 nM	Cc1cc(Nc2ncnc(N)c2C#N)cc2c1C(=O)NC21CCCCC1 [Cpd. No. 77, 4-amino-6-((4′-methyl-3′-oxospiro[cyclohexane-1,1′-isoindolin]-6′-yl)amino)pyrimidine-5-carbonitrile]
50 to 1000 nM	Cc1c(N)ncnc1Nc1cc(C(F)F)c2c(c1)C1(CCCCC1)NC2=O [Cpd. No. 88, 6′-((6-amino-5-methylpyrimidin-4-yl)amino)-4′-(difluoromethyl)spiro[cyclohexane-1,1′-isoindolin]-3′-one]
50 to 1000 nM	COc1cncnc1Nc1cc(C)c2c(c1)C1(CCN(C)CC1)NC2=O [Cpd. No. 60, 6-((5-methoxypyrimidin-4-yl)amino)-1′,4-dimethylspiro [isoindoline-1,4′-piperidin]-3-one]
50 to 1000 nM	Cc1cc(Nc2ncncc2C#N)cc2c1C(=O)NC21CCCCC1 [Cpd. No. 63, 4-((4′-methyl-3′-oxospiro[cyclohexane-1,1′-isoindolin]-6′-yl)amino)pyrimidine-5-carbonitrile]
1000 to 100000 nM	Cc1cc(Nc2ncncc2C#N)cc2c1C(=O)NC21CCN(CC(F)F)CC1 [Cpd. No. 67, 4-((1′-(2,2-difluoroethyl)-4-methyl-3-oxospiro[isoindoline-1,4′-piperidin]-6-yl)amino)pyrimidine-5-carbonitrile]

Compound	IC50
Cc1cc(Nc2ncnc(N)c2OCCCN)cc2c1C(=O)NC21CCCCC1 [Cpd. No. 87, 6′-((6-amino-5-(3-aminopropoxy)pyrimidin-4-yl)amino)-4′-methylspiro[cyclohexane-1,1′-isoindolin]-3′-one hydrochloride salt]	50 to 1000 nM
Cc1cc(Nc2ncnc(N)c2OCCN)cc2c1C(=O)NC21CCCCC1 [Cpd. No. 81, 6′-((6-amino-5-(2-aminoethoxy)pyrimidin-4-yl)amino)-4′-methylspiro[cyclohexane-1,1′-isoindolin]-3′-one hydrochloride]	50 to 1000 nM
CSc1c(N)ncnc1Nc1cc(C)c2c(c1)C1(CCCCC1)NC2=O [Cpd. No. 85, 6′-((6-amino-5-(methylthio)pyrimidin-4-yl)amino)-4′-methylspiro[cyclohexane-1,1′-isoindolin]-3′-one trifluoroacetic acid salt]	50 to 1000 nM
